The record followed here is patent publication US11878973B2, “Bicyclic compounds and their uses” (NOVARTIS AG, priority 2021, dated 2024).

The subject of one assay is SW48 cells. Put plainly: Proliferation assay SW48 (CellTiterGlo, 96 hours). In general terms: Cellular ATP, detected with luciferase, serves as a proxy for viable cell number.
For the next assay, the target named is WRN helicase (Homo sapiens (Human), UniProt Q14191). Put plainly: In vitro enzymatic activity assay on WRN helicase (DNA dependent ATPase assay, ADP-Glo). Format: biochemical. To be noted: geometric means of at least 2 determinations; read-out: WRN ATPase Activity (IC50). The text has this: An ATPase assay was set up to measure the DNA dependent ATP hydrolysis activity of WRN helicase. This assay was used also to assess the inhibition properties of compounds of the invention on DNA dependent WRN ATPase activity.
The core helicase motif of the WRN protein (aa N517-P1238) was produced for this assay (protein production as described above). […] The ADP-Glo assay kit (Promega, Madison, WI) allowing the quantification of ADP produced in ATP hydrolysis reactions was used for setting up this assay.
Time course experiments were first performed in order to determine the best enzymatic assay conditions (including buffer conditions, reaction time and concentrations of protein, ATP and DNA substrates). A typical reaction consists of 10 nM WRN protein, 0.2 nM FLAP26, and 300 micromolar ATP in the following assay buffer: 30 mM Tris pH7.5, 2 mM MgCl2, 0.02% BSA, 50 mM NaCl, 0.1% pluronic F127 prepared in DNAse free water. To evaluate the inhibition properties of compounds of the invention, serial dilutions were prepared in DMSO (10 half log dilutions from a 10 mM DMSO solution). […] The reaction was started by addition of 2.5 microliters of FLAP26 at 0.4 nM and incubated for 30 minutes at room temperature. The reaction was stopped with the addition of 5 microliters of the first ADP-Glo reagent and incubated for one hour to remove the excess amount of ATP. Afterwards, 10 microliters of ATP detection reagent was added and incubated for an additional hour before reading. Luminescence output was recorded using Tecan 1000 reader, with 5 minutes delay before reading. Each concentration of compound was tested in duplicates in the assay plate.
Following normalization of activity values for the wells to % inhibition (% inhibition=[(high control-sample)/(high control-low control)]×100), IC50 fitting was carried out from the duplicate determinations present on each plate according to [4]. Data analysis can also be carried out using commercially available software designed to derive IC50 values using 4-parameter fits (e.g. GraphPad Prism, XL fit). The reported IC50 values are the geometrical means of at least 2 independent replicates.
(In ADP-Glo the light output rises with the ADP produced.)

The next assay concerns DLD1-WRN-KO cells. Put plainly: Proliferation assay DLD1-WRN-KO (CellTiterGlo, 96 hours; off-target effects). To be noted: read-out: Proliferation Assay DLD1-WRN-KO (GI50).
Setting [1] is: Homo sapiens, SW48, read-out: Proliferation Assay SW48 (GI50).

pIC50: −log10 of the molar value. Read-outs that look alike come from different tables or passages of the source.

WRN helicase, sequence (Q14191 517-1238): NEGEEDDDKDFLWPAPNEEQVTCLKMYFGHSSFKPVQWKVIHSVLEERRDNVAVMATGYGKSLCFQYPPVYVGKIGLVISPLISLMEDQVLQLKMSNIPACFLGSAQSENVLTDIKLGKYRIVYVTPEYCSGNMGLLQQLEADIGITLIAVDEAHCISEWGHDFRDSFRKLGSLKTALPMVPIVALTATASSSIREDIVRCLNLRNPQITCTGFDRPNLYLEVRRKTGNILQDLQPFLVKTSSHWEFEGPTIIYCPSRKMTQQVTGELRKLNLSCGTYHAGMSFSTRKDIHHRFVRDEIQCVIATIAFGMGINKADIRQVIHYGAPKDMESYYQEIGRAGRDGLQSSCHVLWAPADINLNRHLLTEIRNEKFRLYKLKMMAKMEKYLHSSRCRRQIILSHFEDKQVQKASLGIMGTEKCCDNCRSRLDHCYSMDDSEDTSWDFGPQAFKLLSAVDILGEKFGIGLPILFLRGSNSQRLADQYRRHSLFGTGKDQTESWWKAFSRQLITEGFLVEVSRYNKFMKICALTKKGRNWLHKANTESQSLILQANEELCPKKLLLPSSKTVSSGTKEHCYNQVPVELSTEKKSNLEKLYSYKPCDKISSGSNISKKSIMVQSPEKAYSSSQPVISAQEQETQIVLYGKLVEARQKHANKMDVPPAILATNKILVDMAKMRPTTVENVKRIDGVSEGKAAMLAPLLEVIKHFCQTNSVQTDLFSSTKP
Experimental for DLD1-WRN-KO cells: (§1) The WRN-knockdown insensitive colon carcinoma cell line DLD-1 (RRID: CVCL_0248) was obtained from the Korean Cell Line Bank (KCLB), and used to generate a derivative in which the endogenous WRN gene copies were knocked out by CRISPR-mediated editing using standard CRISPR methods. The resulting cell line, DLD1-WRN—KO, was used to assess potential off-target compound effects.
(§2) All cells were maintained at 37° C. in a humidified 5% CO2 incubator.
(§3) For data analysis, the assay background signal that was determined in wells containing medium, but no cells, was subtracted from all other data points prior to further calculations. The extent of growth inhibition and potential cell kill was assessed by comparing the ATP levels (measured using CellTiterGlo, Promega) in compound-treated cells with those present at the time of compound addition. […] 100%, 0% and −100% signify absence of growth inhibition, growth stasis, and complete cell kill, respectively. Compound concentrations leading to half-maximal growth inhibition (G150) and residual cell viability at the highest tested compound concentration (Data (cmax), expressed in percent) were routinely calculated. Data analysis can also be carried out using commercially available software designed to derive IC50 values using 4-parameter fits (e.g. GraphPad Prism, XL fit). The reported GI50 values are the geometrical means of at least 2 independent replicates.
Experimental for SW48 cells: as §1, §2, §3

Regarding `CCc1c(N2CCN(C(=O)c3ncnc(C)c3O)[C@H]3CC[C@@H]32)c(=O)n2nc(C3=CCOCC3)nc2n1CC(=O)Nc1ccc(C(F)(F)F)cc1Cl` [Example 125, N-(2-chloro-4-(trifluoromethyl)phenyl)-2-(2-(3,6-dihydro-2H-pyran-4-yl)-5-ethyl-6-((1 S,6S)-5-(5-hydroxy-6-methylpyrimidine-4-carbonyl)-2,5-diazabicyclo[4.2.0]octan-2-yl)-7-oxo-[1,2,4]triazolo[1,5-a]pyrimidin-4(7H)-yl)acetamide], the GI50 is 10 nM in the assay with SW48 cells (setting [1]) and greater than 10000 nM in the assay on DLD1-WRN-KO cells (Homo sapiens). Besides, the pIC50 on WRN helicase was 7.52.
As to `Cc1c(N2CCN(C(=O)c3ncccc3O)[C@H](C)C2)c(=O)n2nc(C3=CCOCC3)nc2n1CC(=O)Nc1ccc(C(F)(F)F)cc1` [Example 89, (R)-2-(2-(3,6-dihydro-2H-pyran-4-yl)-6-(4-(3-hydroxypicolinoyl)-3-methylpiperazin-1-yl)-5-methyl-7-oxo-[1,2,4]triazolo[1,5-a]pyrimidin-4(7H)-yl)-N-(4-(trifluoromethyl)phenyl)acetamide], the values for the GI50 with SW48 cells (setting [1]) and in the assay with DLD1-WRN-KO cells (Homo sapiens) were 170 nM and greater than 10000 nM, respectively. Besides, the pIC50 on WRN helicase is 7.40.
On to `CCc1c(N2CCN(C(=O)c3ncncc3O)CC2)c(=O)n2nc(C3=CCOCC3)nc2n1CC(=O)Nc1ccc(C(F)(F)F)cc1Cl` [Example 44, N-(2-chloro-4-(trifluoromethyl)phenyl)-2-(2-(3,6-dihydro-2H-pyran-4-yl)-5-ethyl-6-(4-(5-hydroxypyrimidine-4-carbonyl)piperazin-1-yl)-7-oxo-[1,2,4]triazolo[1,5-a]pyrimidin-4(7H)-yl)acetamide], for which the figures for the GI50 with SW48 cells (setting [1]) and with DLD1-WRN-KO cells (Homo sapiens) were 80 nM and greater than 10000 nM, respectively. Further, the pIC50 on WRN helicase is 6.96.
In the case of `CCc1c(N2CCN(C(=O)c3ncnc(C)c3O)[C@H](C)C2)c(=O)n2nc(C3=CCOCC3)nc2n1CC(=O)Nc1ccc(C(F)(F)F)cc1Cl` [Example 86, (R)—N-(2-chloro-4-(trifluoromethyl)phenyl)-2-(2-(3,6-dihydro-2H-pyran-4-yl)-5-ethyl-6-(4-(5-hydroxy-6-methylpyrimidine-4-carbonyl)-3-methylpiperazin-1-yl)-7-oxo-[1,2,4]triazolo[1,5-a]pyrimidin-4(7H)-yl)acetamide], the figures for the GI50 with SW48 cells (setting [1]) and in the assay on DLD1-WRN-KO cells (Homo sapiens) were 80 nM and greater than 10000 nM, respectively. Besides, the negative logarithm of the IC50 (pIC50) on WRN helicase was 7.05.
With `CCc1c(N2CCN(C(=O)c3ncccc3O)CC2)c(=O)n2nc(N3CCOCC3)nc2n1CC(=O)Nc1cc(Cl)c(C(F)(F)F)cc1C` [Example 4, N-(5-chloro-2-methyl-4-(trifluoromethyl)phenyl)-2-(5-ethyl-6-(4-(3-hydroxypicolinoyl)piperazin-1-yl)-2-morpholino-7-oxo-[1,2,4]triazolo[1,5-a]pyrimidin-4(7H)-yl)acetamide], the values for the GI50 in the assay on SW48 cells (setting [1]) and in the assay with DLD1-WRN-KO cells (Homo sapiens) were 60 nM and greater than 10000 nM, respectively. The pIC50 on WRN helicase is 7.40.
On the same counts, the results for `CCc1c(N2CCN(C(=O)c3nc(C)ccc3O)CC2)c(=O)n2nc(C3=CCOCC3)nc2n1CC(=O)Nc1ccc(C(F)(F)F)cc1` [Example 74, 2-(2-(3,6-dihydro-2H-pyran-4-yl)-5-ethyl-6-(4-(3-hydroxy-6-methylpicolinoyl)piperazin-1-yl)-7-oxo-[1,2,4]triazolo[1,5-a]pyrimidin-4(7H)-yl)-N-(4-(trifluoromethyl)phenyl)acetamide] are 70 nM, greater than 10000 nM and 7.30.
On to `CCc1c(N2CCN(C(=O)c3nc(C)cc(F)c3O)CC2)c(=O)n2nc(C3=CCOCC3)nc2n1CC(=O)Nc1ccc(C(F)(F)F)cc1Cl` [Example 41, N-(2-chloro-4-(trifluoromethyl)phenyl)-2-(2-(3,6-dihydro-2H-pyran-4-yl)-5-ethyl-6-(4-(4-fluoro-3-hydroxy-6-methylpicolinoyl)piperazin-1-yl)-7-oxo-[1,2,4]triazolo[1,5-a]pyrimidin-4(7H)-yl)acetamide], for which the GI50 was 40 nM in the assay on SW48 cells (setting [1]) and greater than 10000 nM in the assay with DLD1-WRN-KO cells (Homo sapiens). Further, the negative logarithm of the IC50 (pIC50) at WRN helicase was 7.40.
For `CCc1c(N2CCN(C(=O)c3nccc(Cl)c3O)CC2)c(=O)n2nc(C3=CC[C@H](OC)CC3)nc2n1CC(=O)Nc1ccc(C(F)(F)F)nc1Cl` (single isomer, unassigned) [Example 24a], the GI50 was 40 nM with SW48 cells (read-out: Proliferation Assay SW48 (GI50), SW48 cell line, geometric means of at least 2 determinations) and greater than 10000 nM in the assay with DLD1-WRN-KO cells (DLD1-WRN-KO cell line, geometric means of at least 2 determinations). For the same compound, the pIC50 at WRN helicase is 6.96.
As to `CCc1c(N2CCN(C(=O)c3ncnc(C)c3O)[C@H](C)[C@H]2C)c(=O)n2nc(C3=CCOCC3)nc2n1CC(=O)Nc1ccc(C(F)(F)F)cc1Cl` [Example 119, N-(2-chloro-4-(trifluoromethyl)phenyl)-2-(2-(3,6-dihydro-2H-pyran-4-yl)-5-ethyl-6-((2R,3R)-4-(5-hydroxy-6-methylpyrimidine-4-carbonyl)-2,3-dimethylpiperazin-1-yl)-7-oxo-[1,2,4]triazolo[1,5-a]pyrimidin-4(7H)-yl)acetamide], the GI50 with SW48 cells (setting [1]) was 50 nM; in the assay with DLD1-WRN-KO cells (Homo sapiens), greater than 10000 nM. The pIC50 at WRN helicase is 6.80.
On the same counts, the results for `CCc1c(N2CCN(C(=O)c3ncccc3O)CC2)c(=O)n2nc(C3=CCOCC3)nc2n1CC(=O)Nc1cnc(C(F)(F)F)cc1C` [Example 34, 2-(2-(3,6-dihydro-2H-pyran-4-yl)-5-ethyl-6-(4-(3-hydroxypicolinoyl)piperazin-1-yl)-7-oxo-[1,2,4]triazolo[1,5-a]pyrimidin-4(7H)-yl)-N-(4-methyl-6-(trifluoromethyl)pyridin-3-yl)acetamide] are 280 nM, greater than 10000 nM and 6.60.
In the case of `CCc1c(N2CCN(S(=O)(=O)c3ncccc3O)CC2)c(=O)n2nc(C3=CCOCC3)nc2n1CC(=O)Nc1ccc(C(F)(F)F)cc1Cl` [Example 137, N-(2-chloro-4-(trifluoromethyl)phenyl)-2-(2-(3,6-dihydro-2H-pyran-4-yl)-5-ethyl-6-(4-((3-hydroxypyridin-2-yl)sulfonyl)piperazin-1-yl)-7-oxo-[1,2,4]triazolo[1,5-a]pyrimidin-4(7H)-yl)acetamide], the figures for the GI50 in the assay on SW48 cells (setting [1]) and in the assay on DLD1-WRN-KO cells (Homo sapiens) were 240 nM and 6100 nM, respectively. In addition, the pIC50 on WRN helicase was 7.30.
On the same counts, the results for `CCc1c(N2CCN(C(=O)c3ncccc3O)CC2)c(=O)n2nc(N3CCCC(F)C3)nc2n1CC(=O)Nc1cc(Cl)c(C(F)(F)F)cc1C` (racemic) [Example 13, rac-N-(5-chloro-2-methyl-4-(trifluoromethyl)phenyl)-2-(5-ethyl-2-(3-fluoropiperidin-1-yl)-6-(4-(3-hydroxypicolinoyl)piperazin-1-yl)-7-oxo-[1,2,4]triazolo[1,5-a]pyrimidin-4(7H)-yl)acetamide] are 160 nM, 5200 nM and 7.52.
As for `CCc1c(N2CCN(C(=O)c3ncccc3O)CC2)c(=O)n2nc(C3=CCCCO3)nc2n1CC(=O)Nc1ccc(C(F)(F)F)cc1C` [Example 83, 2-(2-(3,4-dihydro-2H-pyran-6-yl)-5-ethyl-6-(4-(3-hydroxypicolinoyl)piperazin-1-yl)-7-oxo-[1,2,4]triazolo[1,5-a]pyrimidin-4(7H)-yl)-N-(2-methyl-4-(trifluoromethyl)phenyl)acetamide], the GI50 in the assay with SW48 cells (setting [1]) is 60 nM; with DLD1-WRN-KO cells (Homo sapiens), greater than 10000 nM. In addition, the negative logarithm of the IC50 (pIC50) on WRN helicase was 7.05.
For `CCc1c(N2CCN(C(=O)c3ncccc3O)CC2)c(=O)n2nc(N3CCC[C@H](F)C3)nc2n1CC(=O)Nc1ccc(C(F)(F)F)nc1Cl` [Example 16b, (S)—N-(2-chloro-6-(trifluoromethyl)pyridin-3-yl)-2-(5-ethyl-2-(3-fluoropiperidin-1-yl)-6-(4-(3-hydroxypicolinoyl)piperazin-1-yl)-7-oxo-[1,2,4]triazolo[1,5-a]pyrimidin-4(7H)-yl)acetamide], the GI50 is 230 nM in the assay on SW48 cells (setting [1]) and greater than 10000 nM in the assay with DLD1-WRN-KO cells (Homo sapiens). The pIC50 at WRN helicase was 6.74.
Turning to `CCc1c(N2CCN(C(=O)c3ncccc3O)CC2)c(=O)n2nc(C3=CCOCC3)nc2n1CC(=O)Nc1cc(F)c(C(F)(F)F)cc1C` [Example 94, 2-(2-(3,6-dihydro-2H-pyran-4-yl)-5-ethyl-6-(4-(3-hydroxypicolinoyl)piperazin-1-yl)-7-oxo-[1,2,4]triazolo[1,5-a]pyrimidin-4(7H)-yl)-N-(5-fluoro-2-methyl-4-(trifluoromethyl)phenyl)acetamide], the GI50 in the assay with SW48 cells (setting [1]) is 50 nM; in the assay with DLD1-WRN-KO cells (Homo sapiens), greater than 10000 nM. Also, the pIC50 at WRN helicase was 7.40.

Usually pIC50 stands for the negative decadic logarithm of the IC50, by convention in mol/L.
